In US12715894B2, “Triptolide conjugates and uses thereof” (priority 2020, dated 2026):

How the values were obtained:
[1] = tested on: huh-7 cells; test: Huh-7 HCC animal model, antitumor efficacy against solid tumors; assay type: in vivo, male nude mice; conditions: Huh-7 xenograft; for Tumor volume (V) 4 days after treatment: Compound 1 and 2 at 2.0 mg/kg i.p. once daily, Lenvatinib 5.0 mg/kg oral once daily, control V=598 mm^3; for Tumor inhibition rate based on the average tumor weights: after 21 days treatment, Compound 1 and 2 at 2.0 mg/kg i.p. daily, Lenvatinib 5.0 mg/kg oral daily; for Increase of average tumor volume by the end of the treatment compared to before the treatment: end of 3 weeks daily treatment, given as 'increased up to', control up to 15 times
Procedure: To evaluate the antitumor efficacy of the triptolide conjugates disclosed herein against solid tumors, huh-7 cells (~10×10^6 cells) were injected into the right flank of male nude mice. When the tumors reached a volume of ~150 mm^3, the mice were randomly divided into 4 groups with 7 or 8 mice per group and were treated as below indicated. Tumor volumes were measured twice per week and estimated by using the formula: Tumor volume (V)=(L×W×W)÷2, W is tumor width, L is tumor length. • 1. Group 1 was the control group in which the mice were administered daily the vehicle (0.5% CMC-Na/carboxymethylcellulose sodium, i.p.) for 3 weeks; • 2. Group 2 was the test group in which the mice were administered daily Compound 1 (2.0 mg/kg, i.p.) for 3 weeks; • 3. Group 3 was the test group in which the mice were administered daily Compound 2 (2.0 mg/kg, i.p.) for 3 weeks; and • 4. Group 4 was the positive control group in which the mice where administered daily Lenvatinib (5.0 mg/kg, oral) for 3 weeks.

[2] = tested on: HepG-2 cells; test: HepG-2 HCC animal model, antitumor efficacy against solid tumors; assay type: in vivo, male nude mice; conditions: HepG-2 xenograft; Conjugate 4 at 2.0 mg/kg, Conjugates 8, 9, 10 at 6.0 mg/kg, i.p. daily for 4 weeks; vehicle group increased to 17.72 times
Procedure: To evaluate the antitumor efficacy of the novel triptolide-conjugate against solid tumors, HepG-2 cells (~10×10^6 cells) were injected into the right flank of male nude mice. when the tumors were reached a volume of ~150 mm^3, mice were randomly divided into 5 groups with 8 mice per group and treated as below indicated. Tumor volumes were measured twice per week and estimated by using the formula: Tumor volume (V)=(L×W×W) 2, W is tumor width, L is tumor length. • 1. Group 1 is the control in which the mice were daily administered vehicle (i.p. brine) for 4 weeks; • 2. in Group 2, mice were daily administered Conjugate 4 (2.0 mg/kg, i.p.) for 4 weeks; • 3. in Group 3, mice were daily administered Conjugate 8 (6.0 mg/kg, i.p.) for 4 weeks; • 4. in Group 4, mice were daily administered Conjugate 9 (6.0 mg/kg i.p.) for 4 weeks; • 5. in Group 5, mice were daily administered Conjugate 10 (6.0 mg/kg, i.p.) for 4 weeks;

CC(C)[C@]12O[C@H]1[C@@H]1O[C@]13[C@]1(O[C@H]1C[C@H]1C4=C(CC[C@@]13C)C(=O)OC4)[C@@H]2OC(=O)CCC(=O)OC[C@H]1OC(O)[C@H](F)[C@@H](O)[C@@H]1O (stereo partly drawn) [Compound 1, ((2R,3S,4S,5R)-5-fluoro-3,4,6-trihydroxytetrahydro-2H-pyran-2-yl)methyl ((5bS,6aS,7aR,8R,8aS,9aS,9bS,10aS,10bS)-8a-isopropyl-10b-methyl-3-oxo-1,2,3,5,5b,6,6a,8,8a,9a,9b,10b-dodecahydrotris(oxireno)[2′,3′:4b,5;2″,3″:6,7;2′″,3′″:8a,9]phenanthro[1,2-c]furan-8-yl) succinate]
Tumor volume (V) 4 days after treatment [1]: 245 mm^3
Tumor inhibition rate based on the average tumor weights [1]: 88.3%
Increase of average tumor volume by the end of the treatment compared to before the treatment [1]: up to 2.0 times

CC(C)[C@]12O[C@H]1[C@@H]1O[C@]13[C@]1(O[C@H]1C[C@H]1C4=C(CC[C@@]13C)C(=O)OC4)[C@@H]2OC(=O)CCC(=O)N1CCN(C(=O)CCC(=O)N[C@@H]2C(O)O[C@@H](CO)[C@H](O)[C@H]2O)CC1 (stereo partly drawn) [Compound 2, (5bS,6aS,7aR,8R,8aS,9aS,9bS,10aS,10bS)-8a-isopropyl-10b-methyl-3-oxo-1,2,3,5,5b,6,6a,8,8a,9a,9b,10b-dodecahydrotris(oxireno)[2′,3′:4b,5;2″,3″:6,7;2′″,3′″:8a,9]phenanthro[1,2-c]furan-8-yl 4-oxo-4-(4-(4-oxo-4-(((3S,4S,5R,6S)-2,4,5-trihydroxy-6-(hydroxymethyl)tetrahydro-2H-pyran-3-yl)amino)butanoyl)piperazin-1-yl)butanoate]
Tumor volume (V) 4 days after treatment [1]: 315 mm^3
Tumor inhibition rate based on the average tumor weights [1]: 84.4%
Increase of average tumor volume by the end of the treatment compared to before the treatment [1]: ≤ 2.7 times

CC(C)[C@]12O[C@H]1[C@@H]1O[C@]13[C@]1(O[C@H]1C[C@H]1C4=C(CC[C@@]13C)C(=O)OC4)[C@@H]2OC(=O)CNC(=O)CNC(=O)COC[C@H]1OC(O)[C@H](O)[C@@H](O)[C@@H]1O (stereo partly shown) [Compound 4]
Tumor size after 28 days treatment [2]: gradually shrinked to disappear

CC(C)[C@]12O[C@H]1[C@@H]1O[C@]13[C@]1(O[C@H]1CC1C4=C(CC[C@@]13C)C(=O)OC4)[C@@H]2OC(=O)CCC(=O)NC(COCCC(=O)NCCCNC(=O)CCCC(=O)N[C@H]1C(O)O[C@H](CO)[C@@H](O)[C@@H]1O)(COCCC(=O)NCCCNC(=O)CCCC(=O)N[C@H]1C(O)O[C@H](CO)[C@@H](O)[C@@H]1O)COCCC(=O)NCCCNC(=O)CCCC(=O)N[C@H]1C(O)O[C@H](CO)[C@@H](O)[C@@H]1O (stereo partly shown) [Compound 8]
Tumor size after 28 days treatment [2]: gradually shrinked to disappear

CC(C)[C@]12O[C@H]1[C@@H]1O[C@]13[C@]1(O[C@H]1CC1C4=C(CC[C@@]13C)C(=O)OC4)[C@@H]2OC(=O)CCC(=O)NC(COCCC(=O)NCCCNC(=O)CCCCO[C@@H]1O[C@H](CO)[C@@H](O)[C@H](O)[C@H]1O)(COCCC(=O)NCCCNC(=O)CCCCO[C@@H]1O[C@H](CO)[C@@H](O)[C@H](O)[C@H]1O)COCCC(=O)NCCCNC(=O)CCCCO[C@@H]1O[C@H](CO)[C@@H](O)[C@H](O)[C@H]1O (stereo partly shown) [Compound 9]
Tumor size after 28 days treatment [2]: gradually shrinked to disappear

CC(=O)N[C@H]1[C@H](OCCCCC(=O)NCCCNC(=O)CCOCC(COCCC(=O)NCCCNC(=O)CCCCO[C@@H]2O[C@H](CO)[C@H](O)[C@H](O)[C@H]2NC(C)=O)(COCCC(=O)NCCCNC(=O)CCCCO[C@@H]2O[C@H](CO)[C@H](O)[C@H](O)[C@H]2NC(C)=O)NC(=O)CCC(=O)O[C@@H]2[C@@]3(C(C)C)O[C@H]3[C@@H]3O[C@]34[C@]23O[C@H]3CC2C3=C(CC[C@@]24C)C(=O)OC3)O[C@H](CO)[C@H](O)[C@@H]1O (stereo partly shown) [Compound 10]
Tumor size after 28 days treatment [2]: gradually shrinked to disappear

COc1cc2nccc(Oc3ccc(NC(=O)NC4CC4)c(Cl)c3)c2cc1C(N)=O [Lenvatinib, reference compound]
Tumor volume (V) 4 days after treatment [1]: 381 mm^3
Tumor inhibition rate based on the average tumor weights [1]: 42.3%
Increase of average tumor volume by the end of the treatment compared to before the treatment [1]: ≤ 9 times
